From US6583180B2, “Glucocorticoid receptor modulators” (Abbott Laboratories, priority 2001, dated 2003)

Key:
[1] = molecular target: T1, Human glucocorticoid receptors (Homo sapiens, UniProt P04150); test: Radioligand filter binding assay, displacement of 3[H]-dexamethasone from hGR; details: read-out: GR Binding (% Inhibition at 1.7 μM)
T1 construct: made in house; host or cells: Sf9 insect cells, recombinant baculovirus (BAC-TO-BAC)
T1 sequence (P04150 1-777): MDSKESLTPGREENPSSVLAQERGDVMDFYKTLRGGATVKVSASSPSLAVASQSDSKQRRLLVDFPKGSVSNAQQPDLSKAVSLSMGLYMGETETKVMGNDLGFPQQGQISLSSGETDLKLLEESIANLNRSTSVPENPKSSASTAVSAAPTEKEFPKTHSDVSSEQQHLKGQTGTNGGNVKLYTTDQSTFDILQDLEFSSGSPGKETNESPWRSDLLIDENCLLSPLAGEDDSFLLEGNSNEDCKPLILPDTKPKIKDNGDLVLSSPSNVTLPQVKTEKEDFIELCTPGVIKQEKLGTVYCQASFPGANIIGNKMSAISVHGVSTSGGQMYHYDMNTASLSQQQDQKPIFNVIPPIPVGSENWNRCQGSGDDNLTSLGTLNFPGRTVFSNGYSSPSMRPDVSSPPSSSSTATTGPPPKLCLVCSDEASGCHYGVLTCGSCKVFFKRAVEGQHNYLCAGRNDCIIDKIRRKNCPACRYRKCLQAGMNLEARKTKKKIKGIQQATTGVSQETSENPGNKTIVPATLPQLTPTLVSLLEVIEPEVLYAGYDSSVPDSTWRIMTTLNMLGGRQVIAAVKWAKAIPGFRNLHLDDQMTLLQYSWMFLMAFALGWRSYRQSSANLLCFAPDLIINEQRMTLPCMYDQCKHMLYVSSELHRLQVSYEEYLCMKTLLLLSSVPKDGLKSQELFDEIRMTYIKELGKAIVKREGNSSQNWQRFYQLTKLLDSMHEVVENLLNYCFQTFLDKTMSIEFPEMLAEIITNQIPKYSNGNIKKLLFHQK
Outline: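 Recombinant hGR extract from baculovirus-infected Sf9 cells (final ~1 nM receptor) incubated with ³H-dexamethasone and test compound dilutions in duplicate, EDTA/phosphate pH 8 buffer with MTG, overnight (15-20 h) at +4° C. Bound label collected on PEI-treated GF/B filters and scintillation-counted; IC50 from four-parameter fit of corrected cpm.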

[2] = molecular target: T2, progesterone receptor (PR) (Homo sapiens, UniProt P06401); test: Radioligand binding assay for progesterone receptor (similar protocol);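 note: radioligand binding measured with cytosol preparations containing the human progesterone receptor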
T2 sequence (P06401 1-933): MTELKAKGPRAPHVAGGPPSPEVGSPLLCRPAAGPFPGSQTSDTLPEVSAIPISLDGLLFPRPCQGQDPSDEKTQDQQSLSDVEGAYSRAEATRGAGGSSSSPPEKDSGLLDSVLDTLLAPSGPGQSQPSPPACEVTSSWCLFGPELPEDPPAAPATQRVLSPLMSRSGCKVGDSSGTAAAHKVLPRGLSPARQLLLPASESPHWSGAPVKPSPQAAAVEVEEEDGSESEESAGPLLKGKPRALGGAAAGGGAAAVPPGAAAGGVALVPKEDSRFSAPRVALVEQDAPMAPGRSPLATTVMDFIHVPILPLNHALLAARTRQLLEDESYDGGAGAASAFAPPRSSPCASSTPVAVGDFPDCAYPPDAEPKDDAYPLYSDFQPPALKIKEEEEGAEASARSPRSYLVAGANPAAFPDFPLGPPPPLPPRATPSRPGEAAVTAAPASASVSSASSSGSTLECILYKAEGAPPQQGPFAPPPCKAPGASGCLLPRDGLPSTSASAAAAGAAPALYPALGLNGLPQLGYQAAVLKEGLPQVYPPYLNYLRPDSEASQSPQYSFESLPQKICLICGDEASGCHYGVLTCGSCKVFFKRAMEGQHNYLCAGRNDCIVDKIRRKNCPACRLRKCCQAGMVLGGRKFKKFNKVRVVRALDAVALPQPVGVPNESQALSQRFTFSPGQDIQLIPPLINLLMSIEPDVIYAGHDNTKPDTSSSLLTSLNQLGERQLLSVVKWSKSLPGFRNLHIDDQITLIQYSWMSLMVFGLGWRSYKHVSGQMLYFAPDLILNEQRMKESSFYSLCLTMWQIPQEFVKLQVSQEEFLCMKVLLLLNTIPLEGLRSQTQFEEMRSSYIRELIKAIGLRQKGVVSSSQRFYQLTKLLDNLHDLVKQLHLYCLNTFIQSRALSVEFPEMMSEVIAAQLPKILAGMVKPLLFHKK
Source text: Methods for Radiolipand Binding Studies with Human Glucocorticoid and Progesterone Receptor Cytosol

| SMILES | inhibition at 1.7 µM [1] [%] | IC50 [2] [nM] |
| --- | --- | --- |
| C=CCOc1ccc(CN(Cc2ccc(F)cc2F)c2cccc(NS(C)(=O)=O)c2C)cc1 [Example 20, N-{3-[[4-(allyloxy)benzyl](2,4-difluorobenzyl)amino]-2-methylphenyl}methanesulfonamide] | 84.2 | 430 |
| Cc1c(NS(C)(=O)=O)cccc1N(Cc1ccccc1F)Cc1ccc(F)cc1F [Example 23, N-{3-[(2,4-difluorobenzyl)(2-fluorobenzyl)amino]-2-methylphenyl}methanesulfonamide] | 92 | 920 |
| Cc1c(NS(C)(=O)=O)cccc1N(Cc1ccccc1)Cc1ccc(Cl)cc1 [Example 29, N-{3-[benzyl(4-chlorobenzyl)amino]-2-methylphenyl}methanesulfonamide] |  | > 10000 |
| Cc1c(NS(C)(=O)=O)cccc1N(Cc1ccc(OCC=Cc2ccccc2)cc1)Cc1ccc(F)cc1F [Example 33, N-{3-[(2,4-difluorobenzyl)(4-{[3-phenyl-2-propenyl]oxy}benzyl)amino]-2-methylphenyl}methanesulfonamide] | 92.7 | > 10000 |
| Cc1c(NS(C)(=O)=O)cccc1N(Cc1ccc(OCc2ccccc2)cc1)Cc1ccc(F)cc1F [Example 34, N-{3-[[4-(benzyloxy)benzyl](2,4-difluorobenzyl)amino]-2-methylphenyl}methanesulfonamide] | 90 | > 10000 |
| Cc1c(NS(C)(=O)=O)cccc1N(Cc1ccc(Oc2ccc(CCC(=O)O)cc2)cc1)Cc1ccc(F)cc1F [Example 50, N-{3-[(4-(4-(2-carboxyethyl)phenoxy)benzyl)(2,4-difluorobenzyl)amino]-2-methylphenyl}methanesulfonamide] |  | 190 |
| Cc1c(NS(C)(=O)=O)cccc1N(Cc1ccc(Oc2ccc(CCC(=O)O)cc2)cc1)Cc1ccc(Cl)cc1F [Example 86, 3-(4-{4-[((4-chloro-2-fluorobenzyl){2-methyl-3-[(methylsulfonyl)amino]phenyl}amino)methyl]phenoxy}phenyl)propanoic acid] |  | 216 |
| Cc1c(NS(C)(=O)=O)cccc1N(Cc1ccccc1)Cc1ccc(Oc2ccc(C(=O)O)cc2)cc1 [Example 96, 4-{4-[(benzyl{2-methyl-3-[(methylsulfonyl)amino]phenyl}amino)methyl]phenoxy}benzoic acid] |  | > 1000 |
| COCOc1ccc(Oc2ccc(CN(Cc3ccccc3)c3cccc(NS(C)(=O)=O)c3C)cc2)cc1 [Example 97, N-[3-(benzyl{4-[4-(methoxymethoxy)phenoxy]benzyl}amino)-2-methylphenyl]methanesulfonamide] |  | 772 |
| Cc1c(NS(C)(=O)=O)cccc1N(Cc1ccc(Br)cc1)Cc1ccc(Oc2ccccc2)cc1 [Example 103, N-{3-[(4-bromobenzyl)(4-phenoxybenzyl)amino]-2-methylphenyl}methanesulfonamide] |  | 78.3 |
| Cc1c(NS(C)(=O)=O)cccc1N(Cc1ccc(Oc2ccc(Cl)c(O[C@H](C)C(=O)O)c2)cc1)Cc1ccc(F)cc1F [Example 321, (2R)-2-(2-chloro-5-(4-(((2,4-difluorobenzyl)(2-methyl-3-((methylsulfonyl)amino)phenyl)amino)methyl)phenoxy)phenoxy)propanoic acid] | 96.4 |  |

The remaining lines, values ahead:

| inhibition at 1.7 µM [1] [%] | IC50 [2] [nM] | SMILES |
| --- | --- | --- |
| 88.1 | 600 | Cc1c(NS(C)(=O)=O)cccc1N(Cc1ccccc1Br)Cc1ccccc1Br [Example 1, N-{3-[bis(2-bromobenzyl)amino]-2-methylphenyl}methanesulfonamide] |
|  | 4050 | Cc1c(NS(C)(=O)=O)cccc1N(Cc1ccccc1)Cc1ccc(F)cc1 [Example 9, N-{3-[benzyl(4-fluorobenzyl)amino]-2-methylphenyl}methanesulfonamide] |
|  | 2310 | Cc1c(NS(C)(=O)=O)cccc1N(Cc1ccccc1)Cc1ccc(F)cc1F [Example 10, N-{3-[benzyl(2,4-difluorobenzyl)amino]-2-methylphenyl}methanesulfonamide] |
|  | 1860 | Cc1c(NS(C)(=O)=O)cccc1N(Cc1ccccc1)Cc1ccc(Br)cc1 [Example 13, N-{3-[benzyl(4-bromobenzyl)amino]-2-methylphenyl}methanesulfonamide] |
|  | 1480 | COc1ccc(CN(Cc2ccc(F)cc2F)c2cccc(NS(C)(=O)=O)c2C)cc1 [Example 22, N-{3-[(2,4-difluorobenzyl)(4-methoxybenzyl)amino]-2-methylphenyl}methanesulfonamide] |
|  | 2590 | Cc1c(NS(C)(=O)=O)cccc1N(Cc1ccc(F)cc1F)Cc1ccc(F)cc1F [Example 24, N-{3-[bis(2,4-difluorobenzyl)amino]-2-methylphenyl}methanesulfonamide] |
| 87.5 | 1790 | Cc1c(NS(C)(=O)=O)cccc1N(Cc1ccc(F)cc1F)Cc1ccccc1C#N [Example 25, N-{3-[(2-cyanobenzyl)(2,4-difluorobenzyl)amino]-2-methylphenyl}methanesulfonamide] |
|  | 1730 | Cc1c(NS(C)(=O)=O)cccc1N(Cc1ccccc1)Cc1ccc(Cl)cc1Cl [Example 32, N-{3-[benzyl(2,4-dichlorobenzyl)amino]-2-methylphenyl}methanesulfonamide] |
|  | > 10000 | Cc1c(NS(C)(=O)=O)cccc1N(Cc1ccccc1)Cc1ccc(OCC=CBr)cc1 [Example 35, N-{3-[benzyl(4-{[3-bromo-2-propenyl]oxy}benzyl)amino]-2-methylphenyl}methanesulfonamide] |
| 85.5 | 1200 | COc1ccc(NS(C)(=O)=O)cc1N(Cc1ccccc1Br)Cc1ccccc1Br [Example 36, N-{3-[bis(2-bromobenzyl)amino]-4-methoxyphenyl}methanesulfonamide] |
|  | 246 | Cc1c(NS(C)(=O)=O)cccc1N(Cc1ccccc1)Cc1ccc(Oc2cccc(OCC(=O)O)c2)cc1 [Example 62, (3-{4-[(benzyl{2-methyl-3-[(methylsulfonyl)amino]phenyl}amino)methyl]phenoxy}phenoxy)acetic acid] |
|  | 743 | Cc1c(NS(C)(=O)=O)cccc1N(Cc1ccccc1)Cc1ccc(Oc2ccc(CCCC(=O)NCC(=O)O)cc2)cc1 [Example 107, N-[4-(4-{4-[(benzyl{2-methyl-3-[(methylsulfonyl)amino]phenyl}amino)methyl]phenoxy}phenyl)butanoyl]glycine] |
|  | 165 | Cc1c(NS(C)(=O)=O)cccc1N(Cc1ccccc1)Cc1ccc(Oc2cccc(O)c2)cc1 [Example 115, N-(3-{benzyl[4-(3-hydroxyphenoxy)benzyl]amino}-2-methylphenyl)methanesulfonamide] |
|  | 1300 | CSc1ccc(CN(Cc2ccc(Cl)cc2F)c2cccc(NS(C)(=O)=O)c2C)cc1 [Example 144, N-(3-{(4-chloro-2-fluorobenzyl)[4-(methylthio)benzyl]amino}-2-methylphenyl)methanesulfonamide] |
|  | 357 | Cc1c(NS(C)(=O)=O)cccc1N(Cc1ccccc1F)Cc1ccc(Cl)cc1F [Example 145, N-{3-[(4-chloro-2-fluorobenzyl)(2-fluorobenzyl)amino]-2-methylphenyl}methanesulfonamide] |
|  | 8.9 | Cc1c(NS(C)(=O)=O)cccc1N(Cc1ccc(Oc2ccc(F)c(OCC(=O)O)c2)cc1)Cc1ccc(F)cc1F [Example 305, (5-(4-(((2,4-difluorobenzyl)(2-methyl-3-((methylsulfonyl)amino)phenyl)amino)methyl)phenoxy)-2-fluorophenoxy)acetic acid] |
